Test results reported in PubChem BioAssay AID504568 (NMMLSC, 2011).
The source made the active and inactive calls.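 The calls were made as follows: active = binding readouts below 60% of the midpoint between blocked and unblocked controls, with summed weighted score above 1; inactive = the rest.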

Test system: 2C TCR mouse CD8+ T cells, vesicle binding, flow cytometry
Experiment: modulators of T cell-vesicle binding via LFA-1, confirmation, powder samples, single concentration, mouse 2C TCR, flow cytometry (AID 504568);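 also: lower values mean less vesicle binding and point to an inhibitor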;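 as to double-positive events (T cell-vesicle binding): the gate for binding is set so anti-LFA-1 blocked control wells show 10% double positives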
Conditions: stronger effect = lower value; for mean fluorescence percent response: measured here: CD8+ cell vesicle fluorescence mean

Structure (SMILES) | double-positive events (T cell-vesicle binding) | mean fluorescence percent response [%]
O=C(c1ccc(N2C(=O)C3CC=C(Cl)CC3C2=O)cc1)N1CCCCC1 (centres undefined) | 22.8% (inactive) | 130
CC(Sc1nc2ccccc2[nH]1)C(=O)NC1CCCCC1C (centres undefined) | 25.7% (inactive) | 141
COc1ccc(Nc2ccccc2N)cc1 | 32.7% (inactive) | 138
CCOC(=O)c1ccc(S(=O)(=O)N2CCN(C3CCCC3)CC2)cc1 | 23% (inactive) | 155
O=C(CS(=O)(=O)Cc1ccccc1)N1CCc2ccccc21 | 25.6% (inactive) | 159
Cc1cccc(NC(=O)C2CCN(S(=O)(=O)c3c(C)[nH]c(=O)[nH]c3=O)CC2)c1 | 27.4% (inactive) | 161
O=C(CC1=NCCNC(c2ccccc2)C1)c1ccccc1O (centres undefined) | 28% (inactive) | 170
CCCNC(=O)c1nc2ncc(Br)cn2n1 | 25.8% (inactive) | 154
CCOC(=O)C1CCCN(S(=O)(=O)c2ccc(F)c(C(=O)Nc3ccc(F)c(F)c3)c2)C1 (centres undefined) | 22.4% | 162
CCC(C(=O)Nc1ccccc1)c1ccccc1 (centres undefined) | 24.6% | 131
O=C(COC(=O)C12CC3CC(CC(Br)(C3)C1)C2)Nc1cccc(S(=O)(=O)N2CCOCC2)c1 | 13.9% | 91.1
Cc1ccc(O)c(CCc2ccccc2)n1 | 22.9% | 120
COc1ccc(S(=O)(=O)N2CCCC2C(=O)Nc2ccc(C(C)=O)cc2)cc1 (centres undefined) | 26.1% (inactive) | 142
CCOC(=O)c1c(C=O)c2ccccc2n1CC | 20.5% | 148
CCOc1ccc(-c2nc(N)ncc2-c2ccccc2)c(O)c1 | 20.9% | 126
Cc1ccc(S(=O)(=O)N2CCN(S(=O)(=O)N(C)C)CC2)c(C)c1 | 24.7% | 139
COc1ccc(NC(=O)CC2C(=O)N(Cc3ccccc3)C(=S)N2CCN2CCOCC2)cc1 (centres undefined) | 28.8% (inactive) | 149
CC1CCCCC1NC(=O)COC(=O)c1ccc2ncsc2c1 (centres undefined) | 19.9% | 111
COc1cccc(NC(=O)Nc2ccc3nc(C)c(C)nc3c2)c1 | 18.7% | 113
COc1ccc(S(=O)(=O)N2CCCCC2)cc1NC(=O)c1cnc(C)cn1 | 26.7% (inactive) | 173
Cc1ccc(OCCOC(=O)c2cc(S(=O)(=O)N3CCCCC3)ccc2N2CCOCC2)cc1 | 20.9% | 134
Cc1ccccc1C(=O)N1CCC(C(=O)Nc2ccc(C)c(S(=O)(=O)N3CCCCC3)c2)CC1 | 22.7% | 130
CCOC(=O)c1ccc(NC(=O)CN2C(=O)NC3(CCCCCCC3)C2=O)cc1 | 27.4% | 149

Structure (SMILES) | double-positive events (T cell-vesicle binding) | mean fluorescence percent response [%]
COc1ccc(C2=Nc3cc(C)ccc3OC2)cc1 | 26.7% (inactive) | 140
COCCCN1CCc2[nH]c(=S)[nH]c(=O)c2C1 | 28% (inactive) | 169
CCCCOc1ccc(C(=O)NCC(=O)N2CCN(C(=O)c3ccco3)CC2)cc1 | 25.2% | 133
Cc1ccc(NC(=O)COC(=O)CCc2c[nH]c3ccccc23)c(C)c1 | 25.1% | 147
CCC1(C)NC(=O)N(CC(=O)N2N=C(c3ccccc3)CC2c2ccc(OC)cc2)C1=O (centres undefined) | 24% (inactive) | 144
O=C(OCCOc1cccc(Cl)c1)c1ccc(F)c(S(=O)(=O)N2CCOCC2)c1 | 25.8% (inactive) | 163
NC(=O)C1CCN(c2nc(-c3cc4ccccc4o3)cs2)CC1 | 26.2% (inactive) | 140
Cc1ccccc1C(=O)NCC(=O)N1CCN(C/C=C/c2ccccc2)CC1 | 21.8% | 150
CN1CCN(S(=O)(=O)c2cccc(C(=O)Nc3cc(C(F)(F)F)ccc3N3CCCCC3)c2)CC1 | 21.7% | 105
O=C(Cn1cc(C(F)(F)F)cc(Cl)c1=O)NCCc1ccc(Cl)cc1Cl | 26.4% (inactive) | 136
CCN(CC)S(=O)(=O)c1ccc(Cl)c(NC(=O)COC(=O)C2CCCCC2)c1 | 14.5% | 126
Cc1ccc(N2CC(C(=O)NC3=NCCS3)CC2=O)cc1 (centres undefined) | 21.9% (inactive) | 161
CC(=O)c1ccc(-c2csc(N3CCC(C(N)=O)CC3)n2)cc1 | 26.5% (inactive) | 153
CC(=O)Nc1ccc(S(=O)(=O)NC2CCSc3ccccc32)cc1 (centres undefined) | 23.2% (inactive) | 120
CN1CCN(S(=O)(=O)c2ccc(C(=O)Nc3ccccc3)cc2)CC1 | 26.1% (inactive) | 138
COc1ccc(/C=C2\SC(=S)N(CCC(=O)N3CCOCC3)C2=O)cc1 | 22.1% | 102
COC(=O)c1ccccc1NC(=O)C1CCN(C(=O)c2cc(OC)cc(OC)c2)CC1 | 29.9% (inactive) | 172
Cc1ncc([N+](=O)[O-])n1Cc1cccc(F)c1 | 28.5% (inactive) | 152
Cc1cc(Cl)c(OCCCSc2nc(C)cc(=O)[nH]2)c(Br)c1 | 25% | 126
CN(C)S(=O)(=O)c1cccc(-n2sc3ccccc3c2=O)c1 | 17.7% | 109
CN(CC(=O)Nc1cc(S(=O)(=O)N2CCCC2)ccc1Cl)Cc1ccc2c(c1)OCO2 | 20.9% | 123
CCCc1nnc(NC(=O)c2ccc(S(=O)(=O)N(C)c3ccccc3OC)cc2)s1 | 26.1% (inactive) | 131
O=C1CC(c2nc3ccccc3[nH]2)CN1Cc1ccccc1 (centres undefined) | 22.6% | 124

Structure (SMILES) | double-positive events (T cell-vesicle binding) | mean fluorescence percent response [%]
CN(C)S(=O)(=O)c1ccc(C(=O)NCCc2ccco2)cc1 | 22.8% | 122
COc1ccccc1NS(=O)(=O)c1cc(NC(=O)CNC(=O)c2cc(C)cc(C)c2)ccc1C | 27.3% (inactive) | 153
Cc1ccc(S(=O)(=O)N2CCN(C(=O)CNC(=O)c3ccc(Cl)cc3)CC2)cc1 | 29.6% (inactive) | 165
CC(C)(C)NC(=O)COc1ccc(CNCc2cccnc2)cc1 | 25.7% (inactive) | 148
Cn1c(CNC(=O)CNC(=O)c2ccc(F)cc2)cc(=O)n(C)c1=O | 29.7% (inactive) | 165
Cc1sc2ncnc(NCC(C)(C)N3CCOCC3)c2c1C | 20.2% | 126
O=C(NCc1cccnc1)C(=O)NCC(c1ccco1)N1CCN(c2ccccc2)CC1 (centres undefined) | 26.8% (inactive) | 149
COCc1c(C(=O)Nc2cccc(S(=O)(=O)N3CCCCC3)c2)oc2ccccc12 | 14.8% | 104
Cc1ccc(Cn2c([N+](=O)[O-])cnc2C)cc1 | 23.1% | 153
CCCCn1nc(C(=O)N2CCN(S(=O)(=O)c3ccccc3)CC2)c2ccccc2c1=O | 28.1% (inactive) | 145
O=C(O)C1CCC(Cn2c(SCc3cc(=O)n4cc(Cl)ccc4n3)nc3ccsc3c2=O)CC1 (centres undefined) | 19.5% | 128
c1ccc(COc2ccc(OCCN3CCCCC3)cc2)cc1 | 20.7% | 133
COc1ccc(C(O)c2coc3ccc(O)c(CN(C)C)c23)cc1 (centres undefined) | 21.7% (inactive) | 162
O=C(NCCC1=CCCCC1)C(=O)NCC(c1ccco1)N1CCN(c2ccccc2F)CC1 (centres undefined) | 26.1% (inactive) | 116
CCOc1ccc(CCNC(=O)CCS(=O)(=O)c2ccc(C)cc2)cc1OCC | 23.5% | 117
COc1ccc(NC(=O)CSCC(=O)Nc2cccc(S(=O)(=O)N3CCCCCC3)c2)cc1 | 21.7% | 136
CCN(CC)CCNC(=O)CCCNC(=O)Cn1cnc2sc(C)c(C)c2c1=O | 30.9% (inactive) | 196
Cc1ccc(C(=O)NCCCN2CCOCC2)c(C)c1 | 24.4% | 136
O=C(NCC1CCCCC1)c1ccc(Cl)c(S(=O)(=O)N2CCOCC2)c1 | 17.8% | 136
O=C(CCC(=O)N1CCOCC1)NCc1cccc(C(F)(F)F)c1 | 24.3% (inactive) | 133
COc1ccc(CNC(=O)c2cccnc2SC)cc1OC | 26.7% (inactive) | 163
